In patent publication US8026211B2, “Methods and formulations for increasing intestinal function” (Technion Research & Development Foundation Ltd., priority 2004, dated 2011):

Tests used:
Type in all cases: in vivo
enterocytes = experiment: Rat model of SBS: enterocyte apoptosis (TUNEL assay); conditions: SBS rats, oral insulin
Description: Animal treatment: Animals were obtained from the Rappaport Faculty of Medicine (Technion, Haifa, Israel). Male rats weighing 240-260 g were kept in individual stainless steel cages at constant temperature and humidity, and a 12-hour light-dark cycle was maintained. Rats were fasted 12 hours prior to the experiment with free access to water. Animals underwent one of two surgical procedures: bowel transection and re-anastomosis or 75% bowel resection and anastomosis. General anesthesia was induced with Pentobarbital (IP 40 mg/kg). Using sterile techniques, the abdomen was opened using a midline incision. […]
Group C—SBS-Insulin (SBS-INS, n=13) rats underwent bowel resection and were fed regular chow diet and water containing insulin (ACTRAPID insulin, NOVO NORDISK, Denmark) at concentration of 1 u/ml. Food and fluid intake of animals were monitored as well as weight for a period of 14 days following treatment after which the animals were sacrificed following intraperitoneal injection of pentobarbital (75 mg/kg).
Apoptosis of enterocytes was assessed by terminal […] nick-end labeling (TUNEL) immunohistochemical assay using the I.S. Cell Death Detection kit (Boehringer Mannheim GmbH, Mannheim, Germany). […] For each group, the number of stained cells was counted in at ten villi in areas without necrosis. […]

[1] = tested on: ischemia-reperfusion (IR) injury in rats; experiment: Rat ischemia-reperfusion injury: intestinal histology (villus height, crypt depth, Park's injury grade)
Description: (§1) Surgical procedure: Following overnight fasting, the animals were anesthetized with intraperitoneal injection of pentobarbital (IP 40 mg/kg). Using sterile techniques, the abdomen was opened using a midline incision. […] IR underwent laparotomy, mobilization and occlusion of SMA and portal vein by vascular clamp for 30 minutes followed by a reperfusion period of 24 hours. Before closure of the abdomen, the rats were resuscitated with a 3-ml intraperitoneal injection of warm 0.9% saline. For all operations, the abdominal cavity was closed in two layers with a running suture of Dexon “S” Polyglycolic Acid 3/0. Rats were allowed free access to water and food. Twenty-four hours later, the rats were anesthetized with intraperitoneal pentobarbital (75 mg/kg) and were sacrificed by open pneumothorax.
Intestinal Histology: Intestinal samples from the proximal jejunum and distal ileum were fixed in 10% formalin, dehydrated in progressive concentrations of ethanol, cleared in xylene, and embedded in paraffin wax. Deparaffinized […] sections were stained with haematoxylin and eosin. Ten villi and crypts were selected for the microscopic analysis, using a 10×4 magnifying lens. Histological images were loaded on a 760×570 pixels resolution buffer using a computerized image analysis system composed of a trichip RGB video-camera (Sony, Japan), installed on a light microscope (Zeiss, Germany) and attached to an IBM compatible personal computer (Pentium III, MMX, 450 mhz, 125 MB RAM), equipped with a frame grabber. […] The villus height and crypt depth were measured using the Image Pro Plus 4 image analysis software (Media Cybernetics, Baltimore, Md., USA).
The degree of intestinal tissue injury was evaluated on a grading scale from 0 to 8 as described previously by Park et al., [Surgery. 107: 574, 1990]: 0—normal mucosa, 1—subepithelial space at villus tip, 2—more extended subepithelial space, 3—epithelial lifting along villus sides, 4—denuded villi, 5—loss of villus tissue, 6—crypt layer infarction, 7—transmucosal infarction, 8—transmural infarction.

[2] = tested on: ischemia-reperfusion (IR) injury in rats; experiment: Rat ischemia-reperfusion injury: survival and intestinal mucosal parameters (bowel and mucosal weight, DNA, protein)
Description: Animals: Animals were obtained from the Rappaport Faculty of Medicine (Technion, Haifa, Israel). Male rats weighing 240-260 g were kept in individual stainless steel cages at constant temperature and humidity, and a 12-hour light-dark cycle was maintained. Rats were fasted 12 hours prior to the experiment with free access to water.
as §1
Intestinal Mucosal Parameters: The small intestine from the pylorus to the ileo-cecal valve was removed and divided into two segments: proximal jejunum and distal ileum. The intestine was split on the antimesenteric border, washed with cold saline, dried, and each segment was weighed. The mucosa was scraped from the underlying tissue with a glass slide and weighed. Bowel and mucosal weights were calculated as mg/cm bowel length/100 g body weight. Mucosal samples were homogenized with TRIzol reagent (Rhenium LTD, Jerusalem). DNA and protein were extracted by the method of Chomczynski [BioTechniques. 15:532, 1993] and were expressed as micrograms per centimeter of bowel per 100 g of body weight. In brief, 100 mg tissue was mixed with 1 ml of TRIzol reagent and homogenized for 2 min. Following a three minute incubation period and centrifugation the contents separated into three phases. DNA was isolated from the interphase using ethanol, washed with sodium citrate and was stabilised with 75% ethanol. Protein was isolated from the lower phase using isopropyl alcohol, washed with guanidine hydrochloride, and stabilised with 100% ethanol. Quantitation of DNA was performed with a spectrophotomer. Concentration of the final protein concentration was detected using Bio-Rad Protein Assay technique.
Statistical analysis: All data are given as mean±SD. Differences between experimental groups were tested for statistical significance (p<0.05) using the nonparametric Kruskal-Wallis ANOVA test, followed by the corrected Mann-Whitney test.

[3] = IR-INS rats, 24 h reperfusion, IR 18±3, p<0.05

insulin
apoptotic cells number in ileum (enterocytes; vs SBS-untreated): did not affect | apoptotic index in jejunum (enterocytes; SBS-untreated 29±7, mean±SEM, p<0.05): 11±3 TUNEL positive cells/10 villi | intestinal injury grade (Park's criteria) in jejunum and ileum ([1]; IR rats, oral insulin, vs IR-animals): did not significantly change | ileal crypt depth ([1]; insulin treated IR rats, IR 131±7, p<0.05): 219±11 μm | jejunal crypt depth ([1]; insulin treated IR rats, IR 167±8, p<0.05): 264±13 μm | ileal villus height ([1]; insulin treated IR rats, IR 225±25, p<0.05): 421±40 μm | jejunal villus height ([1]; insulin treated IR rats, IR 341±29, p<0.05): 622±91 μm | post-operative mortality ([2]; IR rats, insulin in drinking water (2%) 3 days prior to and 24 hours following IR): no effect | ileal mucosal weight ([2]; IR-INS rats, 24 h reperfusion, IR 5.9±0.6, p<0.05): 7.3±0.4 mg/cm/100 g | jejunal mucosal weight ([2]; IR-INS rats, 24 h reperfusion, IR 7.0±0.6, p<0.05): 8.9±0.6 mg/cm/100 g | mucosal protein in ileum [2, 3]: 25±2 μg/cm/100 g | mucosal protein in jejunum [2, 3]: 28±3 μg/cm/100 g | jejunal intestinal (bowel) weight ([2]; IR-INS rats, 24 h reperfusion, IR 20.1±0.7, p<0.05): 23±0.8 mg/cm/100 g
